US3948967A, “Aryl urea carbonates” (Velsicol Chemical Corporation, priority 1974, dated 1976)

Key:
Type in all cases: in vivo
Mustard [1] = assay: post-emergence herbicidal activity, foliage spray; details: 8 lb. per acre on foliage, 10 to 15 days, scale 0 = no injury to 10 = death
From the text: (§1) After spraying, the soil containers were placed in the greenhouse and provided with supplementary heat as required and daily or more frequent watering. The plants were maintained under these conditions for a period of from 15 to 21 days, at which time the condition of the plants and the degree of injury to the plants was rated on a scale of from 0 to 10, as follows: 0 = no injury, 1,2 = slight injury, 3,4 = moderate injury, 5,6 = moderately severe injury, 7,8,9 = severe injury and 10 = death.
(§2) In these experiments the compounds to be tested were formulated as aqueous emulsions and sprayed at the rate of 8 lb. per acre on the foliage of California barnyardgrass, crabgrass, dock, downybrome, foxtail, Johnson grass, mustard weed, pigweed and velvetleaf that had attained a prescribed size. After spraying the plants were placed in a greenhouse and watered daily or more frequently. Water was not applied to the foliage of the treated plants. The severity of the injury was determined 10 to 15 days after treatment and was rated on the scale of from 0 to 10 heretofore described.

Dock [2] = assay: post-emergence herbicidal activity, foliage spray; details: 8 lb. per acre on foliage, 10 to 15 days, scale 0 = no injury to 10 = death
From the text: as §1, §2

Downybrome [3] = assay: post-emergence herbicidal activity, foliage spray; details: 8 lb. per acre on foliage, 10 to 15 days, scale 0 = no injury to 10 = death
From the text: as §1, §2

Pigweed [4] = assay: post-emergence herbicidal activity, foliage spray; details: 8 lb. per acre on foliage, 10 to 15 days, scale 0 = no injury to 10 = death
From the text: as §1, §2

California barnyardgrass [5] = assay: post-emergence herbicidal activity, foliage spray; details: 8 lb. per acre on foliage, 10 to 15 days, scale 0 = no injury to 10 = death
From the text: as §1, §2

Foxtail [6] = assay: post-emergence herbicidal activity, foliage spray; details: 8 lb. per acre on foliage, 10 to 15 days, scale 0 = no injury to 10 = death
From the text: as §1, §2

Crabgrass [7] = assay: post-emergence herbicidal activity, foliage spray; details: 8 lb. per acre on foliage, 10 to 15 days, scale 0 = no injury to 10 = death
From the text: as §1, §2

Velvetleaf [8] = assay: post-emergence herbicidal activity, foliage spray; details: 8 lb. per acre on foliage, 10 to 15 days, scale 0 = no injury to 10 = death
From the text: as §1, §2

Johnson grass [9] = assay: post-emergence herbicidal activity, foliage spray; details: 8 lb. per acre on foliage, 10 to 15 days, scale 0 = no injury to 10 = death
From the text: as §1, §2

Mustard [10] = assay: pre-emergence herbicidal activity, greenhouse pots; details: 8 lb. per acre, 15 to 21 days, scale 0 = no injury to 10 = death
Experimental: (§3) In these experiments small plastic greenhouse pots filled with dry soil were seeded with California barnyardgrass, crabgrass, dock, downybrome, foxtail, Johnson grass, mustard weed, pigweed and velvetleaf. Twenty-four hours or less after seeding the pots were sprayed with water until the soil was wet and the test compounds formulated as aqueous emulsions of acetone solutions containing emulsifiers were sprayed at the rate of 8 lb. per acre on the surface of the soil.
as §1

Dock [11] = assay: pre-emergence herbicidal activity, greenhouse pots; details: 8 lb. per acre, 15 to 21 days, scale 0 = no injury to 10 = death
Experimental: as §3, §1

Downybrome [12] = assay: pre-emergence herbicidal activity, greenhouse pots; details: 8 lb. per acre, 15 to 21 days, scale 0 = no injury to 10 = death
Experimental: as §3, §1

Pigweed [13] = assay: pre-emergence herbicidal activity, greenhouse pots; details: 8 lb. per acre, 15 to 21 days, scale 0 = no injury to 10 = death
Experimental: as §3, §1

California barnyardgrass [14] = assay: pre-emergence herbicidal activity, greenhouse pots; details: 8 lb. per acre, 15 to 21 days, scale 0 = no injury to 10 = death
Experimental: as §3, §1

Foxtail [15] = assay: pre-emergence herbicidal activity, greenhouse pots; details: 8 lb. per acre, 15 to 21 days, scale 0 = no injury to 10 = death
Experimental: as §3, §1

Crabgrass [16] = assay: pre-emergence herbicidal activity, greenhouse pots; details: 8 lb. per acre, 15 to 21 days, scale 0 = no injury to 10 = death
Experimental: as §3, §1

Velvetleaf [17] = assay: pre-emergence herbicidal activity, greenhouse pots; details: 8 lb. per acre, 15 to 21 days, scale 0 = no injury to 10 = death
Experimental: as §3, §1

Johnson grass [18] = assay: pre-emergence herbicidal activity, greenhouse pots; details: 8 lb. per acre, 15 to 21 days, scale 0 = no injury to 10 = death
Experimental: as §3, §1

[19] = test system: leaf rust on wheat, Puccinia rubigo-vera; assay: control of leaf rust on wheat (soil watering); details: about 25 cc. soil watering, rated 7 to 10 days after inoculation vs untreated
Experimental: The fungicidal utility of the compounds of this invention was illustrated by experiments carried out for the control of leaf rust on wheat, Puccinia rubigo-vera. In these experiments wheat plants were grown in soil until they were about 2-21/2 inches tall. The soil in which the plants were growing was then watered with about 25 cc. of a solution of the chemical in water. The plants were then placed in the greenhouse for about five days and inoculated with leaf rust spores by dusting the spores from diseased plants. After 7 to 10 days the growth of the fungus on the plants was measured and rated in comparison with plants inoculated but otherwise untreated.

SMILES	Injury Rating, Post-Emergence (Mustard [1])	Injury Rating, Post-Emergence (Dock [2])	Injury Rating, Post-Emergence (Downybrome [3])	Injury Rating, Post-Emergence (Pigweed [4])	Injury Rating, Post-Emergence (California barnyardgrass [5])	Injury Rating, Post-Emergence (Foxtail [6])	Injury Rating, Post-Emergence (Crabgrass [7])	Injury Rating, Post-Emergence (Velvetleaf [8])	Injury Rating, Post-Emergence (Johnson grass [9])	Injury Rating, Pre-Emergence (Mustard [10])	Injury Rating, Pre-Emergence (Dock [11])	Injury Rating, Pre-Emergence (Downybrome [12])	Injury Rating, Pre-Emergence (Pigweed [13])	Injury Rating, Pre-Emergence (California barnyardgrass [14])	Injury Rating, Pre-Emergence (Foxtail [15])	Injury Rating, Pre-Emergence (Crabgrass [16])	Injury Rating, Pre-Emergence (Velvetleaf [17])	Injury Rating, Pre-Emergence (Johnson grass [18])	% Control ([19]; 200 ppm actual compound) [%]	% Control ([19]; 1000 ppm actual compound) [%]
CCOC(=O)ON(C(=O)NC)c1ccc(Cl)c(Cl)c1 [Example 2, 1-(3,4-Dichlorophenyl)-1-ethoxycarbonyloxy-3-methylurea]	10	9	10	10	10	10	10	10	8	10	9	9	10	10	10	10	10	8	100	
CCOC(=O)ON(C(=O)NC)c1cc(Cl)ccc1Cl [Example 3, 1-(2,5-Dichlorophenyl)-1-ethoxycarbonyloxy-3-methylurea]																				95
CNC(=O)N(OC(=O)OC)c1ccc(Cl)c(Cl)c1 [Example 1, 1-(3,4-Dichlorophenyl)-1-methoxycarbonyloxy-3-methylurea]	10	8	10	10	10	10	10	10	8	10	9.5	9	10	9.5	10	10	10	9	100	
